The values that follow come from patent US20160333404A1, “METHODS FOR TREATING HCV” (priority 2012, published 2016).

Assay [1] concerns miR-122. Description: Serum miR-122 levels with or without RBV, genotype 2 and 3 patients that achieved SVR (FIG. 7). To be noted: HCV 2 and 3 subjects who achieve SVR on Compound 1/r with Compound 3; presence n=13, absence n=9. In kind it is in vivo, human. An excerpt:
Sample preparation and microRNA real-time PCR. Serum samples were collected at baseline (“Baseline”), day 3 on-treatment (“Day 3”), week 2 on-treatment (“Week 2”), week 10 on-treatment (“Week 10”), and 8 weeks after completing the 12 week regimen (“PT Week 8”) and frozen until analysis. Samples were processed as described in Example 1.
In HCV 2 and 3 subjects who achieve SVR, miR-122 levels are not affected by the presence (n=13) or absence (n=9) of RBV.

For assay [2], the system named is miR-122. Description: Serum miR-122 expression by microRNA real-time PCR, Example 2, 3 days polymerase inhibitor monotherapy then with P/R. In kind it is in vivo, human. As to conditions: treatment-naïve GT1 subjects, day 3 vs day 1. As for the experimental part: Sample preparation and microRNA real-time PCR. Serum samples were collected at baseline (“BASE”), week 2 on-treatment (“W2”), week 10 on-treatment (“W10”), and 8 weeks after completing the 12 week regimen (“Post Week 8”) and frozen until analysis. Total RNA was extracted from serum using the Qiagen miRNeasy® Mini Kit. Serum was thawed on ice and centrifuged at 3000×g for 5 min in a 4° C. microcentrifuge. An aliquot of 200 μL of serum per sample was transferred to a new microcentrifuge tube and 750 μl of a Qiazol mixture containing 1.25 μg/mL of MS2 bacteriophage RNA was added to the serum. The tube was mixed and incubated for 5 min followed by the addition of 200 μL chloroform. […]
15 μl RNA was reverse transcribed in 75 μl reactions using the miRCURY LNA™ Universal RT microRNA PCR, Polyadenylation and cDNA synthesis kit (Exiqon). cDNA was diluted 50× and assayed in 10 ul PCR reactions according to the protocol for miRCURY LNA™ Universal RT microRNA PCR; each microRNA was assayed once by qPCR on the microRNA Ready-to-Use PCR, Human panel I and panel II. […] The amplification curves were analyzed using the Roche LC software, both for determination of Cp (by the 2nd derivative method) and for melting curve analysis. All data was normalized to the average of assays detected in all samples (average—assay Cp). […]
On the technique in general: In qPCR the cycle at which signal appears reflects the starting amount.

On to `NC(=O)c1ncn([C@@H]2O[C@H](CO)[C@@H](O)[C@H]2O)n1` [RBV, ribavirin], for which the “effect of presence or absence of RBV on miR-122 levels” value in assay [1] is given as “not affected”.

Consider `COc1c(/C=C/c2ccc(NS(C)(=O)=O)cc2)cc(-n2ccc(=O)[nH]c2=O)cc1C(C)(C)C` [Compound 4, (E)-N-(4-(3-tert-butyl-5-(2,4-dioxo-3,4-dihydropyrimidin-1(2H)-yl)-2-methoxystyryl)phenyl)methanesulfonamide], for which the “Levels of miR-122 after three days of polymerase inhibitor alone” value in assay [2] is listed as “decreased”. As to `COc1c(-c2ccc3cc(NS(C)(=O)=O)ccc3c2)cc(-n2ccc(=O)[nH]c2=O)cc1C(C)(C)C` [Compound 2, N-(6-(3-tert-butyl-5-(2,4-dioxo-3,4-dihydropyrimidin-1(2H)-yl)-2-methoxyphenyl)naphthalen-2-yl)methanesulfonamide], in assay [2], the “Levels of miR-122 after three days of polymerase inhibitor alone” value is on record as “decreased”.
